From PubChem BioAssay AID2060607 (Molecular Pharmacology Branch, DTP, NCI, 2025)
pIC50: −log10 of the molar value.

Test system: 876862-298-R-J1-PDC complex spheroids, viability % test/control
Assay: Anticancer human tumor 876862-298-R-J1-PDC patient-derived endometrial carcinoma cell line growth inhibition [CLK]
Conditions: for pIC50: curve of first compound; for viability, T/C: stronger effect = lower value
How it was run: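 Multi-cell-type spheroids combined patient-derived tumor cells with HUVEC endothelial cells and human mesenchymal stem cells. Paired agents were dosed in half-log steps down from about clinical Cmax, or from 10 microM where Cmax was unknown.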

[1] = second compound 0.0316 µM, first compound 0.0316 µM
[2] = second compound 0.0316 µM, first compound 0.1 µM
[3] = second compound 0.0316 µM, first compound 0.316 µM
[4] = second compound 0.0316 µM, first compound 1 µM
[5] = second compound 0.1 µM, first compound 0.0316 µM
[6] = second compound 0.1 µM, first compound 0.1 µM
[7] = second compound 0.1 µM, first compound 0.316 µM
[8] = second compound 0.1 µM, first compound 1 µM
[9] = second compound 0.316 µM, first compound 0.0316 µM
[10] = second compound 0.316 µM, first compound 0.1 µM
[11] = second compound 0.316 µM, first compound 0.316 µM
[12] = second compound 0.316 µM, first compound 1 µM
[13] = second compound 1 µM, first compound 0.0316 µM
[14] = second compound 1 µM, first compound 0.1 µM
[15] = second compound 1 µM, first compound 0.316 µM
[16] = second compound 1 µM, first compound 1 µM
[17] = second compound 3.16 µM, first compound 0.0316 µM
[18] = second compound 3.16 µM, first compound 0.1 µM
[19] = second compound 3.16 µM, first compound 0.316 µM
[20] = second compound 3.16 µM, first compound 1 µM
[21] = second compound 10 µM, first compound 0.0316 µM
[22] = second compound 10 µM, first compound 0.1 µM
[23] = second compound 10 µM, first compound 0.316 µM
[24] = second compound 10 µM, first compound 1 µM
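Also: spheroids exposed to drugs for 7 days before readout.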
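For viability, T/C in this document: 100% = DMSO vehicle control wells.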

CC(=O)O[C@H]1C(=O)[C@@]2(C)[C@H]([C@H](OC(=O)c3ccccc3)[C@]3(O)C[C@H](OC(=O)[C@H](O)[C@@H](NC(=O)c4ccccc4)c4ccccc4)C(C)=C1C3(C)C)[C@]1(OC(C)=O)CO[C@@H]1C[C@@H]2O + CNC(=O)c1ccc(Nc2nc(OC3CCCC3)c3c(-c4ccc5nc(C)oc5c4)c[nH]c3n2)c(OC)c1
pIC50 (second compound 0.0316 µM): > 7.50
pIC50 (second compound 0.1 µM): > 7.50
pIC50 (second compound 0.316 µM): > 7.50
pIC50 (second compound 1 µM): > 7.50
pIC50 (second compound 3.16 µM): > 7.50
pIC50 (second compound 10 µM): > 7.50
viability, T/C [1]: 32.5%
viability, T/C [2]: 37.6%
viability, T/C [3]: 37.8%
viability, T/C [4]: 36.5%
viability, T/C (second compound 0.0316 µM, first compound 3.16 µM): 37.3%
viability, T/C (second compound 0.0316 µM, first compound 10 µM): 43.6%
viability, T/C [5]: 51.2%
viability, T/C [6]: 45.7%
viability, T/C [7]: 45.6%
viability, T/C [8]: 42.8%
viability, T/C (second compound 0.1 µM, first compound 3.16 µM): 49.8%
viability, T/C (second compound 0.1 µM, first compound 10 µM): 50.9%
viability, T/C [9]: 41.5%
viability, T/C [10]: 45.6%
viability, T/C [11]: 43.8%
viability, T/C [12]: 41.4%
viability, T/C (second compound 0.316 µM, first compound 3.16 µM): 47.8%
viability, T/C (second compound 0.316 µM, first compound 10 µM): 45.9%
viability, T/C [13]: 32.2%
viability, T/C [14]: 31%
viability, T/C [15]: 33.2%
viability, T/C [16]: 35.4%
viability, T/C (second compound 1 µM, first compound 3.16 µM): 36%
viability, T/C (second compound 1 µM, first compound 10 µM): 40.8%
viability, T/C [17]: 23.1%
viability, T/C [18]: 22.9%
viability, T/C [19]: 24.7%
viability, T/C [20]: 26.6%
viability, T/C (second compound 3.16 µM, first compound 3.16 µM): 30.4%
viability, T/C (second compound 3.16 µM, first compound 10 µM): 33.6%
viability, T/C [21]: 21.6%
viability, T/C [22]: 21%
viability, T/C [23]: 23.4%
viability, T/C [24]: 26.1%
viability, T/C (second compound 10 µM, first compound 3.16 µM): 25.3%
viability, T/C (second compound 10 µM, first compound 10 µM): 30%

CCc1c2c(nc3ccc(O)cc13)-c1cc3c(c(=O)n1C2)COC(=O)[C@]3(O)CC + CNC(=O)c1ccc(Nc2nc(OC3CCCC3)c3c(-c4ccc5nc(C)oc5c4)c[nH]c3n2)c(OC)c1
pIC50 (second compound 0.0316 µM): > 8.50
pIC50 (second compound 0.1 µM): > 8.50
pIC50 (second compound 0.316 µM): > 8.50
pIC50 (second compound 1 µM): > 8.50
pIC50 (second compound 3.16 µM): > 8.50
pIC50 (second compound 10 µM): > 8.50
viability, T/C (second compound 0.0316 µM, first compound 0.00316 µM): 24%
viability, T/C (second compound 0.0316 µM, first compound 0.01 µM): 9.43%
viability, T/C [1]: 8.16%
viability, T/C [2]: 5.8%
viability, T/C [3]: 5.07%
viability, T/C [4]: 3.65%
viability, T/C (second compound 0.1 µM, first compound 0.00316 µM): 16.5%
viability, T/C (second compound 0.1 µM, first compound 0.01 µM): 7.94%
viability, T/C [5]: 7.35%
viability, T/C [6]: 4.4%
viability, T/C [7]: 4.15%
viability, T/C [8]: 3.49%
viability, T/C (second compound 0.316 µM, first compound 0.00316 µM): 14.8%
viability, T/C (second compound 0.316 µM, first compound 0.01 µM): 6.28%
viability, T/C [9]: 5.77%
viability, T/C [10]: 4.17%
viability, T/C [11]: 4.42%
viability, T/C [12]: 3.57%
viability, T/C (second compound 1 µM, first compound 0.00316 µM): 9.55%
viability, T/C (second compound 1 µM, first compound 0.01 µM): 5.23%
viability, T/C [13]: 4.77%
viability, T/C [14]: 4.25%
viability, T/C [15]: 3.64%
viability, T/C [16]: 2.78%
viability, T/C (second compound 3.16 µM, first compound 0.00316 µM): 7.99%
viability, T/C (second compound 3.16 µM, first compound 0.01 µM): 5.52%
viability, T/C [17]: 4.06%
viability, T/C [18]: 4.3%
viability, T/C [19]: 3.4%
viability, T/C [20]: 2.05%
viability, T/C (second compound 10 µM, first compound 0.00316 µM): 6.88%
viability, T/C (second compound 10 µM, first compound 0.01 µM): 4.97%
viability, T/C [21]: 5.13%
viability, T/C [22]: 4.85%
viability, T/C [23]: 3.25%
viability, T/C [24]: 1.96%
